Test [1] has as its target T1, Cannabinoid receptor 1 (Homo sapiens, UniProt P21554). Put plainly: biochemical. It is filed as cell-based, HEK293.
Test [2] concerns the target Cannabinoid receptor 1 (Rattus norvegicus, UniProt P20272). The test is described as follows: Antagonist activity at rat brain CB1 receptor assessed as inhibition of [35S]GTPgammaS binding. It is filed as functional.
Test [3] concerns the target Cannabinoid receptor 1 (Rattus norvegicus) (UniProt P20272). The test is described as follows: Antagonist activity at rat brain CB1 receptor assessed as inhibition of [35S]GTPgammaS binding at 10000 nM. It is filed as functional. A general note: Binding of GTPγS marks nucleotide exchange on a G protein.
Test [4] addresses T1, Cannabinoid receptor 1. Put plainly: Displacement of [3H]CP55940 from human CB1 receptor expressed in HEK293 cells. It is filed as cell-based. For orientation: Displacement assays read how much labelled ligand stays bound in the presence of the test substance.
Test [5] concerns the target Cannabinoid receptor 2 (Homo sapiens, UniProt P34972). Put plainly: Displacement of [3H]CP55940 from human CB2 receptor expressed in CHOK1 cells. It counts as cell-based, CHO-K1.
Test [6] deals with T1, Cannabinoid receptor 1. The following applies: CHO.
The target of test [7] is T1, Cannabinoid receptor 1. Put plainly: Antagonist activity at human brain CB1 receptor by calcium mobilization assay. It counts as functional. Particulars: read-out: pA2 (converted).
In test [8] the test system is Mus musculus. Put plainly: Inhibition of compound 21-induced antinociception in mouse at 10 mg/kg, ip administered 30 mins before compound-21 dosing by tail flick latency test.
Test [9] addresses T1, Cannabinoid receptor 1. Put plainly: Antagonist activity at human brain CB1 receptor assessed as inhibition for [35S]GTPgammaS binding at 10000 nM. It is filed as functional.
Test [10] addresses T1, Cannabinoid receptor 1. The test is described as follows: Antagonist activity at human brain CB1 receptor assessed as inhibition for [35S]GTPgammaS binding. It counts as functional.

Consider 20 compounds from ChEMBL document CHEMBL1268814, “Synthesis and biological evaluation of bivalent ligands for the cannabinoid 1 receptor” (J Med Chem, 2010).

Active and inactive are the calls of the source. The calls are words filed in the database; no cut-off is given here.

In general, Ki refers to a dissociation constant, usually derived from enzyme kinetics or from competition with a known ligand. As a reminder, the EC50 is the midpoint of the concentration-response curve. For orientation: Emax means the greatest response seen or fitted, relative to the assay's reference.

T1 sequence (P21554 whole entry): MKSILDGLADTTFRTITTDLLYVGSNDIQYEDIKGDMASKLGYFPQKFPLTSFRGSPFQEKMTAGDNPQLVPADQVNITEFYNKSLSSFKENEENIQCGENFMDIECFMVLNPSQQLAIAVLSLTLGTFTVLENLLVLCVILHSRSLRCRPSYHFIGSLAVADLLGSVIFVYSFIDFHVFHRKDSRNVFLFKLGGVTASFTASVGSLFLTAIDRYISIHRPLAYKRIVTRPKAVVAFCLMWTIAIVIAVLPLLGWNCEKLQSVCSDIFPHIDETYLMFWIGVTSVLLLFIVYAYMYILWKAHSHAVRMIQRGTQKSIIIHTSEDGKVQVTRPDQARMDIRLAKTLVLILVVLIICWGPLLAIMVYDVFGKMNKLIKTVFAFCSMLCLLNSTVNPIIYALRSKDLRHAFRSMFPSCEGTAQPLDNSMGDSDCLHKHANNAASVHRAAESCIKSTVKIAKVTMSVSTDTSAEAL
Cannabinoid receptor 2, sequence (P34972 whole entry): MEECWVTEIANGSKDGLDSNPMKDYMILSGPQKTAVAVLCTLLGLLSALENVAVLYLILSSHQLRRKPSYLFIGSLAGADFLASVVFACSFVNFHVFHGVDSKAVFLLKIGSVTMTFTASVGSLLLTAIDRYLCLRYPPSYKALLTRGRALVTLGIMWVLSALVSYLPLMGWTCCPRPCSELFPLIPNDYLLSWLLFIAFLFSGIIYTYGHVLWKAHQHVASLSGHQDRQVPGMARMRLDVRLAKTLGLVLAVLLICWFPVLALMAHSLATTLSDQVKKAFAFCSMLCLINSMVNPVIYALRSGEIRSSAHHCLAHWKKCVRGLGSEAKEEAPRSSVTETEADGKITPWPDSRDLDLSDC
Cannabinoid receptor 1 (Rattus norvegicus), sequence (P20272 whole entry): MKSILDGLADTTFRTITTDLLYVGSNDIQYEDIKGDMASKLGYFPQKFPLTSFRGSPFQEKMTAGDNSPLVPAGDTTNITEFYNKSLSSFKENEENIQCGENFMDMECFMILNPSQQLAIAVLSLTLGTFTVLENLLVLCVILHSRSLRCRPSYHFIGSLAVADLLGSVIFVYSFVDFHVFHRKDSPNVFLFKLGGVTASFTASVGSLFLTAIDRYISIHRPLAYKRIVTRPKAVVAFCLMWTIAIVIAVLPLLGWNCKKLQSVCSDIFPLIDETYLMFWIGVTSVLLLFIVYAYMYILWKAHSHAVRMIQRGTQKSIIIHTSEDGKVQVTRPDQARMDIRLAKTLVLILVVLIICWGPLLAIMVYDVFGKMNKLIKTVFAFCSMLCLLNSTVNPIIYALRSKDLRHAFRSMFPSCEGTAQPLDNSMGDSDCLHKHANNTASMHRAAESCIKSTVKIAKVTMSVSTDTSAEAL
Cannabinoid receptor 1 (Rattus norvegicus, UniProt P20272), sequence (P20272 whole entry): as above

Take `Cc1c(C(=O)NCCNCCN)nn(-c2ccc(Cl)cc2Cl)c1-c1ccc(Cl)cc1`: the Ki is 506 nM in [1], 1230 nM in [4] and over 2500 nM in test [5]. In test [2], the EC50 is 7.24 µM. In addition, the Emax in test [3] is -22.9%. Moreover, in test [6], the Ke entry was “inactive”.

For the compound `Cc1c(C(=O)NCCCCCN(C)CCCCCN)nn(-c2ccc(Cl)cc2Cl)c1-c1ccc(Cl)cc1`, in test [7], the Kb was 309 nM. In addition, the results for the Ki in [1] and in test [4] were 88.8 nM and 162 nM, respectively. The EC50 in test [2] amounted to 3.04 µM. Besides, in test [3], the Emax is -53.3%. Further, the Ke in [6] came out at 2870 nM.

As for `Cc1c(C(=O)NCCCCCCCNCCCCCCCN)nn(-c2ccc(Cl)cc2Cl)c1-c1ccc(Cl)cc1`, the Kb in [7] was 20.4 nM. In addition, the Ki in [1] was 19.5 nM; in [4], 46.7 nM; in [5], 622 nM. Further, the inhibition result in test [8] is “inactive”. Further, the EC50 in test [2] was found to be 3.28 µM. Besides, the Emax in [3] is -52.8%. Further, the Ke in [6] was 503 nM.

Consider `Cc1c(C(=O)NCCCCCCCNCCCCCCCNC(=O)c2nn(-c3ccc(Cl)cc3Cl)c(-c3ccc(Cl)cc3)c2C)nn(-c2ccc(Cl)cc2Cl)c1-c1ccc(Cl)cc1`, for which the Kb in test [7] was 8.32 nM. The Ki in [1] turned out to be 4.41 nM; in test [4], 12.3 nM; in test [5] it was 553 nM. For the same compound, in test [8], the inhibition entry is “inactive”. The Emax in test [9] is -38.8%; in test [3] it was -25%. The EC50 in test [2] is 1.19 µM; in [10], 179 nM. Besides, the Ke in [6] was 567 nM.

Take `Cc1c(C(=O)NCCCCCCCN(C)CCCCCCCNC(=O)c2nn(-c3ccc(Cl)cc3Cl)c(-c3ccc(Cl)cc3)c2C)nn(-c2ccc(Cl)cc2Cl)c1-c1ccc(Cl)cc1`: in test [7], the Kb was 4.27 nM. Further, the Ki is 27.5 nM in [1] and 17.3 nM in test [4]. Also, the inhibition result in test [8] was “Active”. For the same compound, the values for the Emax in test [9] and in test [3] were -32.7% and -40.8%, respectively. The EC50 in test [2] worked out at 1.46 µM; in test [10], 2240 nM. The same compound had a Ke in [6] of 478 nM.

For `Cc1c(C(=O)NCCCCCCCCCNCCCCCCCCCNC(=O)c2nn(-c3ccc(Cl)cc3Cl)c(-c3ccc(Cl)cc3)c2C)nn(-c2ccc(Cl)cc2Cl)c1-c1ccc(Cl)cc1`, the Kb in test [7] is 17.4 nM. For the same compound, the Ki was 57.4 nM in test [1], 54.1 nM in test [4] and over 2500 nM in [5]. Moreover, the Emax in test [9] is 6.5%; in test [3] it was 10.4%. Besides, the EC50 in test [2] was 0.00134 µM; in [10], 27.9 nM. Further, the Ke in test [6] was found to be 4160 nM.

With `Cc1c(C(=O)NCCCCCCCN(C)CCCCCCCN)nn(-c2ccc(Cl)cc2Cl)c1-c1ccc(Cl)cc1`, the Kb in test [7] is 21.9 nM. The figures for the Ki in test [1], in test [4] and in test [5] were 15.5 nM, 37.5 nM and 1930 nM, respectively. For the same compound, the inhibition entry in [8] was “Active”. Moreover, the EC50 in [2] was found to be 4.37 µM. For the same compound, the Emax in test [3] was -62%. In [6], this compound returned a Ke of 220 nM.

For `Cc1c(C(=O)NCCCNCCCNC(=O)c2nn(-c3ccc(Cl)cc3Cl)c(-c3ccc(Cl)cc3)c2C)nn(-c2ccc(Cl)cc2Cl)c1-c1ccc(Cl)cc1`, in test [7], the Kb is 38.9 nM. The Ki in [1] was 41.9 nM; in test [4], 174 nM; in test [5], 496 nM. The Emax in [9] is -31.9%; in [3] it was -37.2%. Besides, the results for the EC50 in test [2] and in [10] were 0.718 µM and 84.2 nM, respectively. The Ke in [6] turned out to be 1300 nM.

On to `Cc1c(C(=O)NCCCCCCCCCCCN(C)CCCCCCCCCCCN)nn(-c2ccc(Cl)cc2Cl)c1-c1ccc(Cl)cc1`, for which the Kb in test [7] was 23.4 nM. Further, the results for the Ki in [1], in test [4] and in test [5] were 5.51 nM, 14.7 nM and 426 nM, respectively. In addition, the EC50 in test [2] turned out to be 8.77 µM. Further, the Emax in test [3] is -49.3%. Further, in test [6], the Ke came to 206 nM.

For `Cc1c(C(=O)NCCCNCCCN)nn(-c2ccc(Cl)cc2Cl)c1-c1ccc(Cl)cc1`, the Ki in test [1], in test [4] and in [5] was over 2500 nM in each case. In addition, in test [2], the concentration for a half-maximal effect (EC50) is over 10 µM. Besides, the Emax in [3] is -34.8%. Moreover, the Ke result in test [6] is “inactive”.

As for `Cc1c(C(=O)NCCNCCNC(=O)c2nn(-c3ccc(Cl)cc3Cl)c(-c3ccc(Cl)cc3)c2C)nn(-c2ccc(Cl)cc2Cl)c1-c1ccc(Cl)cc1`, the Kb in test [7] was 83.2 nM. The Ki was 94 nM in [1], 229 nM in [4] and 1280 nM in [5]. For the same compound, the Emax in [9] is -25.5%; in test [3] it was -35.9%. Moreover, the EC50 was over 10 µM in test [2] and 237 nM in test [10]. Also, the Ke in test [6] came to 2700 nM.

For the compound `Cc1c(C(=O)NCCCCCN(C)CCCCCNC(=O)c2nn(-c3ccc(Cl)cc3Cl)c(-c3ccc(Cl)cc3)c2C)nn(-c2ccc(Cl)cc2Cl)c1-c1ccc(Cl)cc1`, the Kb in test [7] was 11 nM. Also, the Ki in test [1] stood at 6.35 nM; in [4] it was 38.7 nM; in test [5], 1040 nM. The Emax is -13.1% in test [9] and -3.8% in test [3]. For the same compound, the values for the EC50 in test [2] and in [10] were 0.00178 µM and 59.8 nM, respectively. For the same compound, the Ke in [6] came to 108 nM.

In the case of `Cc1c(C(=O)NCCCCCNCCCCCNC(=O)c2nn(-c3ccc(Cl)cc3Cl)c(-c3ccc(Cl)cc3)c2C)nn(-c2ccc(Cl)cc2Cl)c1-c1ccc(Cl)cc1`, the Kb in test [7] is 29.5 nM. Also, the figures for the Ki in [1], in test [4] and in test [5] were 30.4 nM, 68.1 nM and 451 nM, respectively. Also, the figures for the Emax in test [9] and in [3] were 8.5% and -29.6%, respectively. The values for the EC50 in [2] and in test [10] were over 10 µM and 33 nM, respectively. The same compound displayed a Ke in [6] of 476 nM.

As for `Cc1c(C(=O)NCCCCCCCCCCCN(C)CCCCCCCCCCCNC(=O)c2nn(-c3ccc(Cl)cc3Cl)c(-c3ccc(Cl)cc3)c2C)nn(-c2ccc(Cl)cc2Cl)c1-c1ccc(Cl)cc1`, in test [7], the Kb was 501 nM. Also, the Ki in test [1] amounted to 1290 nM; in [4], 1890 nM. The figures for the EC50 in test [2] and in test [10] were 0.0293 µM and over 25000 nM, respectively. In [3], the Emax is 17.3%. In [6], the Ke entry is “inactive”.

With `Cc1c(C(=O)NCCCCCCCCCN(C)CCCCCCCCCN)nn(-c2ccc(Cl)cc2Cl)c1-c1ccc(Cl)cc1`, the Kb in test [7] was 4.57 nM. Also, the Ki stood at 6.12 nM in test [1], 10 nM in test [4] and 265 nM in [5]. The EC50 in test [2] is 3.4 µM. For the same compound, the Emax in [3] is -67.9%. Besides, in test [6], the Ke stood at 141 nM.

As for `Cc1c(C(=O)NCCCCCCCCCN(C)CCCCCCCCCNC(=O)c2nn(-c3ccc(Cl)cc3Cl)c(-c3ccc(Cl)cc3)c2C)nn(-c2ccc(Cl)cc2Cl)c1-c1ccc(Cl)cc1`, in [7], the Kb was 29.5 nM. The Ki in test [1] amounted to 94.1 nM; in test [4], 247 nM. Also, in [9], the Emax was -23%. The half-maximal effective concentration (EC50) in [2] is over 10 µM; in [10], 161 nM. Moreover, the Ke entry in test [6] was “inactive”.

For the compound `Cc1c(C(=O)NCCCCCCCCCCCNCCCCCCCCCCCN)nn(-c2ccc(Cl)cc2Cl)c1-c1ccc(Cl)cc1`, in [7], the Kb is 3.16 nM. Moreover, the values for the Ki in [1], in test [4] and in [5] were 2.3 nM, 4.56 nM and 305 nM, respectively. Also, the EC50 in [2] worked out at 3.62 µM. Further, in test [3], the Emax is -29.2%. Also, the Ke in test [6] turned out to be 146 nM.

With `Cc1c(C(=O)NCCCCCNCCCCCN)nn(-c2ccc(Cl)cc2Cl)c1-c1ccc(Cl)cc1`, the Kb in [7] was 759 nM. The Ki is 230 nM in test [1], 349 nM in [4] and over 2500 nM in test [5]. In addition, the EC50 in test [2] came out at 2.22 µM. The Emax in test [3] was -40.7%. In addition, the Ke in [6] stood at 5400 nM.

With `Cc1c(C(=O)NCCCCCCCCCCCNCCCCCCCCCCCNC(=O)c2nn(-c3ccc(Cl)cc3Cl)c(-c3ccc(Cl)cc3)c2C)nn(-c2ccc(Cl)cc2Cl)c1-c1ccc(Cl)cc1`, the Kb in [7] was 27.5 nM. Moreover, the results for the Ki in test [1], in test [4] and in test [5] were 37 nM, 99.3 nM and over 2500 nM, respectively. The results for the EC50 in test [2] and in test [10] were over 10 µM and over 25000 nM, respectively. Moreover, the Emax in [3] was -12.2%. In [6], this compound yielded a Ke of over 10000 nM.

`Cc1c(C(=O)NCCCCCCCCCNCCCCCCCCCN)nn(-c2ccc(Cl)cc2Cl)c1-c1ccc(Cl)cc1`: the Kb in test [7] is 5.62 nM. Also, the Ki in test [1] was found to be 5.44 nM; in [4], 14 nM; in [5], 419 nM. The half-maximal effective concentration (EC50) in test [2] is 2.39 µM. Also, the Emax in [3] is -65.2%. For the same compound, in [6], the Ke amounted to 31.6 nM.
